Experimental data from patent US6699869B1, “β-sheet mimetics and use thereof as inhibitors of biologically active peptides or proteins” (Myriad Genetics Inc., priority 1995, dated 2004).

Legend:
[1] = molecular target: T1, bovine thrombin (Bos taurus, UniProt P00735); test: thrombin assay, hydrolysis of structure (11b) as proteolytic substrate; assay type: biochemical; conditions: for kcat/KM (thrombin): bovine thrombin, 37° C.
T1 construct: bovine thrombin (from Sigma); purchased Sigma
Procedure: (§1) Both the thrombin and Factor VII assays of this experiment were carried out at 37° C. using a Hitachi UV/Vis spectrophotometer (model U-3000). Structure (11b) was dissolved in deionized water. The concentration was determined from the absorbance at 342 nm. […] Initial velocities were calculated from the initial linear portion of the reaction progress curve. Kinetic parameters were determined by unweighted nonlinear least-squares fitting of the simple Michaelis-Menten equation to the experimental data using GraFit (Version 3.0, Erithacus Software Limited).
For the thrombin assay, experiments were performed in pH 8.4 Tris buffer (Tris, 0.05M; NaCl, 0.15M). 6.4 NIH units of bovine thrombin (from Sigma) were dissolved into 10 ml of the assay buffer to yield 10 nM thrombin solution. […] The first two minutes of the reactions were recorded for initial velocity determination.

[2] = molecular target: T2, human Factor VIIa (FVIIa) and human tissue factor (TF) (Homo sapiens, UniProt P08709); test: Factor VII assay, hydrolysis of structure (11b) as proteolytic substrate; assay type: biochemical; conditions: for kcat/KM (Factor VII): human FVIIa and TF, pH 8.0 Tris buffer, 37° C.
T2 construct: human Factor VIIa (FVIIa)
Procedure: as §1
For the Factor VII assay, pH 8.0 Tris buffer (0.05 M Tris, 5 mM CaCl2, 0.15 M NaCl, 0.1% TWEEN 20, 0.1% BSA) was used. 10 μl of 20 μM human Factor VIIa (FVIIa) and 22 μM of human tissue factor (TF) was brought to assay buffer to make 160 nM FVIIa and TF solutions, respectively. […] The initial 3 minutes reaction progress curves were recorded. […] The kcat/KM was, calculated from the slope and found to be 17,500 M^−1 s^−1.

[3] = tested on: control plasma; test: prothrombin time (PT) in control plasma; conditions: compared with PPACK
Procedure: Then 200 μl of prewarmed (at 37° C. for ˜10 minutes) thromboplastin with calcium (from Sigma) was rapidly added into the plasma sample.

[4] = tested on: aPTT and TT; test: pharmacodynamic study in rats (aPTT and TT of plasma samples); assay type: in vivo, rat; conditions: male Sprague Dawley rats, 4 mg/kg IV and 10 mg/kg PO
Procedure: Specifically, a pharmacodynamic and pharmacokinetic study of structure (20b) was conducted in male Sprague Dawley rats. […] Groups of rats (n=3 or 4) were sacrificed and exsanguinated at 0.25, 0.5, 1, 2, 4 and 8 hours following dosing. Efficacy parameters, aPTT and TT; were measured for each plasma sample.

T2 sequence (P08709 213-466 limits assumed): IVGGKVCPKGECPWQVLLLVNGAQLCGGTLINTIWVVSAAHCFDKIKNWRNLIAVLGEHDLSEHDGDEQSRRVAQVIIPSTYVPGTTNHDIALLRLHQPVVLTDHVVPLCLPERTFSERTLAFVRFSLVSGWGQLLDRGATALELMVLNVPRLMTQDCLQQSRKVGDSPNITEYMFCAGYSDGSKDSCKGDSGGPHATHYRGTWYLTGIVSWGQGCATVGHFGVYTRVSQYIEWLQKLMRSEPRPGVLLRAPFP
T2 sequence (P08709 61-212 partner limits assumed): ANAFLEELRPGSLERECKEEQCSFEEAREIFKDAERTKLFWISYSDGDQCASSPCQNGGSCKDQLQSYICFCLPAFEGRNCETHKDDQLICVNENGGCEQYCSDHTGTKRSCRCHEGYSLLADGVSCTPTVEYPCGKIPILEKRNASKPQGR
T2 sequence (P13726 33-251 partner limits assumed): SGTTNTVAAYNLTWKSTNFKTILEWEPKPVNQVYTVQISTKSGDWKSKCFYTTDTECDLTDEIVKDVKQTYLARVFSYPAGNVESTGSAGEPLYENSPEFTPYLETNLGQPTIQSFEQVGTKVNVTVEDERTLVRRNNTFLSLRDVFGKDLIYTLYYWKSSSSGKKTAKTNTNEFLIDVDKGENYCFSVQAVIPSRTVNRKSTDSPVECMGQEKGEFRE

Compound	kcat/KM (thrombin) [1]	kcat/KM (Factor VII) [2]	further results
NC(N)=NCCCC(NC(=O)C1CCCN1C(=O)C(N)Cc1ccccc1)C(=O)Nc1ccc([N+](=O)[O-])cc1 (centres unmarked) [(D)FPR-PNA, reference compound]	2.2e+07 M⁻¹ s⁻¹	12700 M⁻¹ s⁻¹	–
N=C(N)NCCC[C@H](NC(=O)[C@@H]1CCN2CC[C@@](N)(Cc3ccccc3)C(=O)N12)C(=O)Nc1ccc([N+](=O)[O-])cc1 [Structure (11b)]	1.67e+07 M⁻¹ s⁻¹	17,500 M^−1 s^−1	Activity compared to the control (D)FPR-PNA, thrombin ([1]; ratio of kcat/KM to control): 0.76; Activity compared to the control (D)FPR-PNA, Factor VII ([2]; ratio of kcat/KM to control): 1.38
N=C(N)NCCC[C@H](NC(=O)[C@@H]1CCN2CC[C@@](N)(Cc3ccccc3)C(=O)N12)C(=O)CCl [Structure (13b)]	–	–	time required to form clot (PT), in words [3]: comparable with PPACK
N=C(N)NCCC[C@H](NC(=O)[C@@H]1CCN2CC[C@@](N)(Cc3ccccc3)C(=O)N12)C(=O)c1nc2ccccc2s1 [Structure (20b)]	–	–	in vivo efficacy (aPTT and TT) [4]: in vivo efficacy
